Data: patent publication US20220144850A1, “INDOLO HEPTAMYL OXIME ANALOGUE AS PARP INHIBITOR” (Chia Tai Tianqing Pharmaceutical Group Co., Ltd., priority 2019, published 2022)

What was measured:
[1] = Plasma protein binding rate, human plasma (equilibrium dialysis); type: in vitro ADME; conditions: dialysis 4 h at 37° C.
Protocol: Experimental Example 5: Study on Plasma Protein Binding Rate
The protein binding rates of the compounds disclosed herein in plasma of human, CD-1 mice and SD rats were determined. 796 μL of blank plasma was taken from human, CD-1 mice and SD rats, and added with 4 μL of test compound working solution (400. μM) or warfarin working solution (400 μM) to achieve a final concentration of 2 μM of both the test compound and the warfarin in the plasma sample. The samples were mixed well. The final concentration of organic phase DMSO was 0.5%; 50 μL of test compound and warfarin plasma sample was pipetted into a sample receiving plate (three parallels), and a corresponding volume of blank plasma or buffer was immediately added such that the final volume of each sample well was 100 μL. The volume ratio of plasma to dialysis buffer was 1:1, and 400 μL of stop solution was added to these samples, which were used as TO samples for determination of recovery rate and stability. The TO samples were stored at 2-8° C. for subsequent treatment with other dialyzed samples; 150 μL of the test compound and warfarin plasma sample was added to a drug delivery end of each dialysis well, and 150 μL of blank dialysis buffer was added to a corresponding receiving end of the dialysis well. The dialysis plate was then sealed with a gas permeable membrane and placed in a humid, 5% CO2 incubator and incubated at 37° C. for 4 h while shaking at about 100 rpm. After the dialysis was completed, 50 μL of the dialyzed buffer sample and dialyzed plasma sample were pipetted to a new sample receiving plate. A corresponding volume of corresponding blank plasma or buffer was added to the samples such that the final volume of each sample well was 100 μL, and the volume ratio of plasma to dialysis buffer was 1:1. All samples were subjected to LC/MS analysis after protein precipitation, and the protein binding rates and the recovery rates were calculated by the following formulas: protein unbinding rate (%)=100×drug concentration passing through dialysis membrane/drug concentration not passing through dialysate; protein binding rate (%)=100−protein unbinding rate (%); recovery rate (%)=100×(drug concentration passing through dialysis membrane+drug concentration not passing through dialysate)/total drug concentration before dialysis.

[2] = tested on: BRCA1-mutated MDA-MB-436 cells; assay: Anti-proliferation experiment on MDA-MB-436 CTG cells; type: cell-based, human; conditions: 7 days incubation, CellTiter-Glo
Protocol: Experimental Example 2: Anti-Proliferation Experiment on MDA-MB-436 CTG Cells
Experimental materials: test compounds; RPMI-1640 medium; fetal bovine serum; penicillin/streptomycin antibiotic; MDA-MB-436 cell line; Envision multi-marker analyzer (PerkinElmer).
MDA-MB-436 cells were seeded in a white 96-well plate by adding 80 μL of cell suspension (containing 3000 MDA-MB-436 cells) to each well. The cell plate was incubated in a CO2 incubator overnight.
Test compounds were serially 5-fold diluted to the 8th concentration with a multichannel pipette, i.e. from 2 mM to 26 nM, and a duplicate well experiment was performed. 78 μL of medium was added to a intermediate plate, 2 μL of each of serially diluted compounds was transferred to corresponding wells of the intermediate plate, and after mixing, the mixture was transferred to the cell plate at 20 μL per well. The cell plate was incubated in a CO2 incubator for 7 days. Another cell plate was provided for reading signal values on the day of compound addition and these signal values were used as Max values in data analysis. Promega CellTiter-Glo was added to this cell plate at 25 μL per well and the luminescence signals were stabilized by incubation for 10 min at room temperature. Readings were taken using a PerkinElmer Envision multi-marker analyzer.
Promega CellTiter-Glo was added to the cell plate at 25 μL per well and the luminescence signals were stabilized by incubation for 10 min at room temperature. Readings were taken using a PerkinElmer Envision multi-marker analyzer.
2. Data analysis: the original data was converted to inhibition using the equation (sample−Min)/(Max−Min)×100%, and the IC50 value was then curve fitted using four parameters (obtained from the “log(inhibitor) vs. response-variable slope” model in GraphPad Prism). Table 2 provides the inhibitory activity of the compounds disclosed herein against MDA-MB-436 cell proliferation.

[3] = Homo sapiens, MDA-MB-436, 168 h

Row | SMILES | fraction unbound at 4 h, 2 μM [1] | IC50 [2, 3] | IC50 [2]
1 | O=C1NOCc2c(-c3ccc(C4CCCN4)cc3)[nH]c3cc(F)cc1c23 (single isomer, unassigned) [Example 24_A] | 0.073 |  | 9.6 nM
2 | CC1(c2ccc(-c3[nH]c4cc(F)cc5c4c3CONC5=O)cc2F)CCCN1 (single isomer, unassigned) [Example 26_A] | 0.057 |  | 8.4 nM
3 | CC1(c2ccc(-c3[nH]c4cc(F)cc5c4c3CONC5=O)cc2)CCCN1 (stereo not shown) [Example 25_A] | 0.149 | 12.3 nM | 

Other lines, results leading:

Row | fraction unbound at 4 h, 2 μM [1] | IC50 [2, 3] | IC50 [2] | SMILES
4 | 0.235 | 70.2 nM |  | O=C1NOCc2c(-c3ccc(C4CCCN4)c(F)c3)[nH]c3cccc1c23 (stereo not shown) [Example 11_A]
5 | 0.181 | 16.9 nM |  | CC1(c2ccc(-c3[nH]c4cccc5c4c3CONC5=O)cc2)CCCN1 (stereo not shown) [Example 6_A]
